Data as given in patent publication US20210369710A1, “MODULATORS OF MYC FAMILY PROTO-ONCOGENE PROTEIN” (Nalo Therapeutics, priority 2019, published 2021).

Tests used:
MycC Protein = target: T1, MycC Protein (Homo sapiens, UniProt P01106); assay: Degradation of MycC protein, Western blot band density in cells; type: cell-based; details: HL-60 or SKNBE2 cells; 6 uL of compound (1 mM) added to 3 mL cells; 6 hours; Western blot band density (ImageJ)
T1 construct: endogenous in cells; host or cells: HL-60 or SKNBE2
Summary of the method: (§1)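 HL-60 leukemia or SKNBE2 neuroblastoma cells (3×10^6 per well, passages below 40) were exposed for 6 h to compound added from a 1 mM stock. RIPA lysates (25-30 ug protein) were run on SDS-PAGE and immunoblotted for c-Myc or MycN. Band density was quantified from the western images.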

MycN Protein = target: T2, MycN Protein (Homo sapiens, UniProt P04198); assay: Degradation of MycN protein, Western blot band density in cells; type: cell-based; details: HL-60 or SKNBE2 cells; 6 uL of compound (1 mM) added to 3 mL cells; 6 hours; Western blot band density (ImageJ)
T2 construct: endogenous in cells; host or cells: HL-60 or SKNBE2
T2 sequence (P04198 1-464): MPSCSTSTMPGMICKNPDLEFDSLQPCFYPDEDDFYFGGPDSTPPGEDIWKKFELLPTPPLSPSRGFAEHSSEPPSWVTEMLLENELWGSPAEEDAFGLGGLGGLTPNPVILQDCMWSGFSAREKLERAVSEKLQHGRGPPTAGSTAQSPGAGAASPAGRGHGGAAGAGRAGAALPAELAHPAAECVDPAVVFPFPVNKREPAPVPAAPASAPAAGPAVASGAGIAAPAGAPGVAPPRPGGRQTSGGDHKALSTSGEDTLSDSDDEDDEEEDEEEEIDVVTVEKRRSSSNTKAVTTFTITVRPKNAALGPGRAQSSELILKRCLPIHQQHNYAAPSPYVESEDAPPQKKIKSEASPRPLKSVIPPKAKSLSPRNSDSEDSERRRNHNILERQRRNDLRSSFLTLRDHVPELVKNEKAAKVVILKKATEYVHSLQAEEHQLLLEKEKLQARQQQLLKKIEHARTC
Summary of the method: as §1

T1 sequence (P01106 whole entry): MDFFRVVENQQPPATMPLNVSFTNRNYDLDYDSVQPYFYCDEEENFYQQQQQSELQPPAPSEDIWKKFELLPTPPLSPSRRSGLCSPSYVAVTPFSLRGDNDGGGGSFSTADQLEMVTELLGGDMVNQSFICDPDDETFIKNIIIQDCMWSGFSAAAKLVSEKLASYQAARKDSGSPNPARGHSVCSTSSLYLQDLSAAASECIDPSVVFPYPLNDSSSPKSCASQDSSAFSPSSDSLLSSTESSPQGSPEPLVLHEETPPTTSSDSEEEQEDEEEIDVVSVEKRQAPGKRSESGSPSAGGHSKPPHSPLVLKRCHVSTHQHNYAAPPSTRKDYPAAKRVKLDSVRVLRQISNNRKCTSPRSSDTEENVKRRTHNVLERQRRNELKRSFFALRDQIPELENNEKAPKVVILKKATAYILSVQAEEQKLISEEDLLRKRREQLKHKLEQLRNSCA

| Dmax at 2 µM (MycC Protein) [%] | Dmax at 2 µM (MycN Protein) [%] | SMILES | % Degradation of MycC (MycC Protein) | % Degradation of MycN (MycN Protein) |
| --- | --- | --- | --- | --- |
| < 20 | 20 to 49 | Cc1cc(Nc2ccnc(N[C@H]3CC[C@H](NC(=O)N[C@@H]4CCC[C@H](C(F)(F)F)C4)CC3)n2)n[nH]1 [Compound 104, 1-((1R,4R)-4-((4-((5-methyl-1H-pyrazol-3-yl)amino)pyrimidin-2-yl)amino)cyclohexyl)-3-((1R,3S)-3-(trifluoromethyl)cyclohexyl)urea] | – | – |
| < 20 | < 20 | CO[C@H]1c2ccccc2C[C@H]1NC(=O)N[C@H]1CC[C@H](Nc2nccc(Nc3cc(C)[nH]n3)n2)CC1 [Compound 105, 1-((1S,2R)-1-methoxy-2,3-dihydro-1H-inden-2-yl)-3-((1R,4R)-4-((4-((5-methyl-1H-pyrazol-3-yl)amino)pyrimidin-2-yl)amino)cyclohexyl)urea] | – | – |
| 50 to 79 | < 20 | CN1CC(NCc2ccc3c(c2)CC(NC(=O)N[C@H]2CC[C@H](Nc4nccc(Nc5cc(C6CCCC6)[nH]n5)n4)CC2)C3)C1 (stereo partly drawn) [Compound 107] | – | – |
| < 20 | < 20 | C/N=C(\Nc1cccc(C(F)(F)F)c1)N[C@H]1CC[C@H](Nc2nccc(Nc3cc(C)[nH]n3)n2)CC1 [Compound 112] | – | – |
| < 20 | < 20 | Cc1cc(Nc2ccnc(N[C@H]3CC[C@H](NC(=O)NC4Cc5ccc(S(C)(=O)=O)cc5C4)CC3)n2)n[nH]1 (stereo partly drawn) [Compound 115] | – | – |
| < 20 | < 20 | O=C(N[C@@H]1CCC[C@@H](C(F)(F)F)C1)N[C@H]1CC[C@H](Nc2nccc(Nc3cc(C4CCCC4)[nH]n3)n2)CC1 [Compound 119] | – | – |
| < 20 | < 20 | Cc1cc(Nc2ccnc(N[C@H]3CC[C@H](NC(=O)N[C@@H]4CCC[C@@H](C(F)(F)F)C4)CC3)n2)n[nH]1 [Compound 120] | – | – |
| – | – | CN(c1nccc(Nc2cc(C3CCCC3)[nH]n2)n1)C1CCC(NC(=O)N[C@H]2CCC[C@@H](C(F)(F)F)C2)CC1 (stereo partly drawn) [Compound 121 (Fraction 1), 1-((1R,4S)-4-((4-((5-cyclopentyl-1H-pyrazol-3-yl)amino)pyrimidin-2-yl)(methyl)amino)cyclohexyl)-3-((1S,3R)-3-(trifluoromethyl)cyclohexyl)urea] | *** (***: degradation 50-79%) | *** (***: degradation 50-79%) |
| – | – | CN(c1nccc(Nc2cc(C3CCCC3)[nH]n2)n1)C1CCC(NC(=O)N[C@H]2CCC[C@@H](C(F)(F)F)C2)CC1 (stereo partly drawn) [Compound 121 (Fraction 2), 1-((1R,4S)-4-((4-((5-cyclopentyl-1H-pyrazol-3-yl)amino)pyrimidin-2-yl)(methyl)amino)cyclohexyl)-3-((1S,3R)-3-(trifluoromethyl)cyclohexyl)urea] | ** (**: degradation 20-49%) | *** (***: degradation 50-79%) |
| 80 to 100 | 80 to 100 | CN(c1nccc(Nc2cc(C3CC3)[nH]n2)n1)[C@H]1CC[C@H](NC(=O)NC2Cc3ccc(C#N)cc3C2)CC1 (stereo partly drawn) [Compound 142, 1-(5-cyano-2,3-dihydro-1H-inden-2-yl)-3-((1R,4R)-4-((4-((5-cyclopropyl-1H-pyrazol-3-yl)amino)pyrimidin-2-yl)(methyl)amino)cyclohexyl)urea] | – | – |
| 50 to 79 | 50 to 79 | CN(C(=O)NC1Cc2ccc(C#N)cc2C1)[C@H]1CC[C@H](N(C)c2nccc(Nc3cc(C4CCCC4)[nH]n3)n2)CC1 (stereo partly drawn) [Compound 143, 3-(5-cyano-2,3-dihydro-1H-inden-2-yl)-1-((1R,4R)-4-((4-((5-cyclopentyl-1H-pyrazol-3-yl)amino)pyrimidin-2-yl)(methyl)amino)cyclohexyl)-1-methylurea] | – | – |
| 80 to 100 | 50 to 79 | CN(c1nccc(Nc2cc(C3CCC3)[nH]n2)n1)[C@H]1CC[C@H](NC(=O)NC2Cc3ccc(C#N)cc3C2)CC1 (stereo partly drawn) [Compound 144, 1-(5-cyano-2,3-dihydro-1H-inden-2-yl)-3-((1R,4R)-4-((4-((5-cyclobutyl-1H-pyrazol-3-yl)amino)pyrimidin-2-yl)(methyl)amino)cyclohexyl)urea] | – | – |
| 50 to 79 | 80 to 100 | CN(c1nccc(Nc2cc(C3CC(F)(F)C3)[nH]n2)n1)[C@H]1CC[C@H](NC(=O)NC2Cc3ccc(C#N)cc3C2)CC1 (stereo partly drawn) [Compound 145, 1-(5-cyano-2,3-dihydro-1H-inden-2-yl)-3-((1R,4R)-4-((4-((5-(3,3-difluorocyclobutyl)-1H-pyrazol-3-yl)amino)pyrimidin-2-yl)(methyl)amino)cyclohexyl)urea] | – | – |
| 50 to 79 | 80 to 100 | CN(c1nccc(Nc2cc(C3CC4(CC4)C3)[nH]n2)n1)[C@H]1CC[C@H](NC(=O)NC2Cc3ccc(C#N)cc3C2)CC1 (stereo partly drawn) [Compound 148, 1-(5-cyano-2,3-dihydro-1H-inden-2-yl)-3-((1R,4R)-4-(methyl(4-((5-(spiro[2.3]hexan-5-yl)-1H-pyrazol-3-yl)amino)pyrimidin-2-yl)amino)cyclohexyl)urea] | – | – |
| < 20 | 50 to 79 | CN(c1nccc(Nc2cc(C3CCC(F)(F)C3)[nH]n2)n1)[C@H]1CC[C@H](NC(=O)NC2Cc3ccc(C#N)cc3C2)CC1 (stereo partly drawn) [Compound 149, 1-(5-cyano-2,3-dihydro-1H-inden-2-yl)-3-((1R,4R)-4-((4-((5-(3,3-difluorocyclopentyl)-1H-pyrazol-3-yl)amino)pyrimidin-2-yl)(methyl)amino)cyclohexyl)urea] | – | – |
| 80 to 100 | 80 to 100 | CN(c1nccc(Nc2cc(C3CC3)[nH]n2)n1)[C@H]1CC[C@H](NC(=O)NC2Cc3ccccc3C2)CC1 [Compound 150, 1-((1R,4R)-4-((4-((5-cyclopropyl-1H-pyrazol-3-yl)amino)pyrimidin-2-yl)(methyl)amino)cyclohexyl)-3-(2,3-dihydro-1H-inden-2-yl)urea] | – | – |
| – | – | COCCN(c1nccc(Nc2cc(C3CC3)[nH]n2)n1)C1CCC(NC(=O)NC2Cc3ccc(C#N)cc3C2)CC1 [Compound 152, 1-(5-cyano-2,3-dihydro-1H-inden-2-yl)-3-((1R,4R)-4-((4-((5-cyclopropyl-1H-pyrazol-3-yl)amino)pyrimidin-2-yl)(2-methoxyethyl)amino)cyclohexyl)urea] | **** (****: degradation 80-100%) | **** (****: degradation 80-100%) |
| 50 to 79 | 20 to 49 | CN(C(=O)N[C@H]1CC[C@H](N(C)c2nccc(Nc3cc(C4CCCC4)[nH]n3)n2)CC1)C1Cc2ccc(C#N)cc2C1 (stereo partly drawn) [Compound 153, 1-(5-cyano-2,3-dihydro-1H-inden-2-yl)-3-((1R,4R)-4-((4-((5-cyclopentyl-1H-pyrazol-3-yl)amino)pyrimidin-2-yl)(methyl)amino)cyclohexyl)-1-methylurea] | – | – |
